From the supplement of paper PMC10307832

Assays:
Assay in all cases: relative viability (nuclei count vs DMSO), 5 days (fraction); higher = more cells survive
Wnt-C59 + Lapatinib = compound: CC1=NC=CC(=C1)C2=CC=C(C=C2)CC(=O)NC3=CC=C(C=C3)C4=CN=CC=C4 [Wnt-C59] + CS(=O)(=O)CCNCc1ccc(-c2ccc3ncnc(Nc4ccc(OCc5cccc(F)c5)c(Cl)c4)c3c2)o1 [Lapatinib] (partner 2 µM)
In short: (§1)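 Values are medians from duplicate plates. Each reflects relative viability, defined as the nuclei count of treated wells over that of vehicle wells. Lung cancer cell lines in 1536-well plates were pin-tool dosed one day after seeding with one drug alone or with a fixed anchor-drug dose plus five library-drug doses (not always all listed) in √10 steps, then fixed, stained and imaged at 4× after 5 days.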

Lapatinib + Bortezomib = compound: CS(=O)(=O)CCNCc1ccc(-c2ccc3ncnc(Nc4ccc(OCc5cccc(F)c5)c(Cl)c4)c3c2)o1 [Lapatinib] + CC(C)C[C@H](NC(=O)[C@H](Cc1ccccc1)NC(=O)c1cnccn1)B(O)O [Bortezomib] (partner 0.002 µM)
In short: as §1

Lapatinib + Crizotinib = compound: CS(=O)(=O)CCNCc1ccc(-c2ccc3ncnc(Nc4ccc(OCc5cccc(F)c5)c(Cl)c4)c3c2)o1 [Lapatinib] + C[C@@H](Oc1cc(-c2cnn(C3CCNCC3)c2)cnc1N)c1c(Cl)ccc(F)c1Cl [Crizotinib] (partner 1 µM)
In short: as §1

Lapatinib + AZD7762 = compound: CS(=O)(=O)CCNCc1ccc(-c2ccc3ncnc(Nc4ccc(OCc5cccc(F)c5)c(Cl)c4)c3c2)o1 [Lapatinib] + NC(=O)Nc1cc(-c2cccc(F)c2)sc1C(=O)N[C@H]1CCCNC1 [AZD7762] (partner 0.2 µM)
In short: as §1

Cell Line | relative viability (Wnt-C59 + Lapatinib; first compound 0.001 µM) | relative viability (Wnt-C59 + Lapatinib; first compound 0.01 µM) | relative viability (Wnt-C59 + Lapatinib; first compound 0.03162 µM) | relative viability (Wnt-C59 + Lapatinib; first compound 0.1 µM) | relative viability (Lapatinib + Bortezomib; first compound 0.02 µM) | relative viability (Lapatinib + Bortezomib; first compound 0.06325 µM) | relative viability (Lapatinib + Bortezomib; first compound 0.2 µM) | relative viability (Lapatinib + Bortezomib; first compound 0.6325 µM) | relative viability (Lapatinib + Bortezomib; first compound 2 µM) | relative viability (Lapatinib + Crizotinib; first compound 0.02 µM) | relative viability (Lapatinib + Crizotinib; first compound 0.06325 µM) | relative viability (Lapatinib + Crizotinib; first compound 0.2 µM) | relative viability (Lapatinib + Crizotinib; first compound 0.6325 µM) | relative viability (Lapatinib + Crizotinib; first compound 2 µM) | relative viability (Lapatinib + AZD7762; first compound 0.02 µM) | relative viability (Lapatinib + AZD7762; first compound 0.06325 µM) | relative viability (Lapatinib + AZD7762; first compound 0.2 µM) | relative viability (Lapatinib + AZD7762; first compound 0.6325 µM) | relative viability (Lapatinib + AZD7762; first compound 2 µM)
201T | 0.985 | 1.04 | 1.03 | 0.991 | 1.06 | 1.12 | 1.08 | 1.08 | 1.14 | 0.869 | 0.996 | 1.02 | 0.966 | 0.977 | 0.513 | 0.585 | 0.601 | 0.591 | 0.608
A-427 | 1.04 | 1.01 | 1.09 | 1.11 |  | 0.953 | 1.05 | 0.901 | 0.976 |  | 0.804 | 0.945 | 0.936 | 0.77 | 0.709 | 0.658 | 0.745 | 0.793 | 0.681
ABC-1 | 1.1 | 1.18 | 1.14 | 1.19 |  | 0.362 | 0.324 | 0.434 | 0.333 |  | 0.928 | 1.32 | 1.22 | 0.967 |  | 0.73 | 0.821 | 0.774 | 1.07
BEN | 0.825 | 0.804 | 0.736 | 0.641 | 0.665 | 0.783 | 0.637 | 0.781 | 0.608 | 0.826 | 0.672 | 1.06 | 0.828 | 0.747 | 0.499 | 0.704 | 0.587 | 0.855 | 0.556
CAL-12T | 0.614 |  | 0.761 | 0.625 |  | 0.765 | 0.822 | 0.743 | 0.649 | 0.593 | 0.59 | 0.575 | 0.57 | 0.326 |  | 0.615 | 0.515 | 0.587 | 0.592
EKVX | 0.244 | 0.183 | 0.151 | 0.206 | 0.888 | 0.862 | 0.914 | 0.634 | 0.161 | 0.868 | 0.68 | 0.89 | 0.647 | 0.214 |  | 0.518 | 0.693 | 0.708 | 0.663
EMC-BAC-2 | 0.828 | 0.755 | 0.849 | 0.794 | 0.871 | 0.999 | 1.07 | 0.991 | 0.87 | 0.729 | 0.635 | 0.788 | 0.661 | 0.74 |  | 0.938 | 1.05 | 1.13 | 1.18
EPLC-272H | 0.837 | 0.959 | 1.19 | 0.954 |  | 0.837 | 0.904 | 1.01 | 0.781 |  | 0.722 | 0.831 | 0.79 | 0.639 |  | 0.191 | 0.228 | 0.175 | 0.252
H3255 | 0.278 | 0.283 | 0.259 | 0.242 | 0.633 | 0.735 | 0.581 | 0.575 | 0.395 | 0.752 | 0.687 | 0.888 | 0.702 | 0.311 | 0.818 | 0.892 | 0.799 | 0.664 | 0.501
HARA | 0.649 | 0.746 | 0.876 | 0.751 | 1.08 | 0.579 | 1.05 | 0.961 | 0.694 | 1.04 | 1.28 | 0.932 | 0.934 | 0.447 | 0.174 | 0.379 | 0.51 | 0.344 | 0.247
HCC-15 | 0.859 | 0.91 | 0.774 | 0.823 |  | 1.06 | 1.02 | 1 | 0.979 |  | 0.786 | 0.808 | 0.835 | 0.704 |  | 1.09 | 1.24 | 1.24 | 1.16
HCC-44 | 1.01 | 1.03 | 1.01 | 1.03 | 0.762 | 0.855 | 0.901 | 0.953 | 0.8 | 0.747 | 0.743 | 0.837 | 0.802 | 0.675 | 0.984 | 1.03 | 1.02 | 1.01 | 0.893
HCC-78 | 0.632 | 0.721 | 0.901 | 0.741 | 0.546 |  | 0.463 | 0.407 | 0.297 |  | 0.236 | 0.315 | 0.297 | 0.229 |  | 0.528 | 0.422 | 0.599 | 0.564
HCC-366 | 1.16 | 0.999 | 1.07 | 0.976 |  | 1.03 | 1.06 | 0.992 | 0.935 |  | 0.418 | 0.713 | 0.564 | 0.372 |  | 0.245 | 0.205 | 0.247 | 0.133
HCC-827 | 0.188 | 0.163 | 0.191 | 0.203 | 0.982 | 1.04 | 1.1 | 0.94 | 1.07 | 0.915 | 0.944 | 0.923 | 0.88 | 0.513 | 0.172 | 0.299 | 0.129 | 0.19 | 0.103
HOP-62 | 0.907 | 0.996 | 1.04 | 1.03 |  | 0.857 | 0.577 | 0.99 | 0.761 |  | 0.892 | 0.991 | 0.934 | 0.948 |  | 0.526 | 0.669 | 0.501 | 0.568
LC-2-ad | 1.03 | 0.902 | 0.975 | 0.927 |  | 0.936 | 0.994 | 1.14 | 0.96 |  | 0.487 | 0.473 | 0.436 | 0.375 |  | 0.562 | 0.768 | 0.684 | 0.552
LCLC-97TM1 | 1.64 | 0.603 | 1.07 | 0.687 |  |  | 0.515 | 0.74 | 0.819 |  |  | 0.593 | 0.472 | 0.357 |  |  | 0.178 | 0.224 | 0.259
LK-2 | 0.853 | 0.913 | 0.799 | 0.864 |  |  |  |  |  |  |  | 0.253 | 0.217 | 0.245 | 0.393 |  | 0.379 |  | 0.636
